Reference: PMC11864979, “First-in-class ultralong-target-residence-time p38α inhibitors as a mitosis-targeted therapy for colorectal cancer” (Nature Cancer, 2025)
Values joined by “and” are separate entries in the source; they are usually repeats but may differ in a detail not shown here. Equal entries are not always repeated. Where two headings read alike, the source gives them in different places.

Tests used:
[1] = tested on: HT-29; assay: cell viability in human CRC cell line HT-29; type: cell-based; settings: ED Fig. 9h, replicates; for viability at 0.0137 µM / viability at 0.0412 µM / viability at 0.1235 µM / viability at 0.3704 µM / viability at 1.1111 µM / viability at 3.3333 µM / viability at 10 µM: Homo sapiens; for viability at 0.0137 µM: HT-29, read-out: HT-29 Cell viability (%), 0.0137 µM; for viability at 0.0412 µM: HT-29, read-out: HT-29 Cell viability (%), 0.0412 µM; for viability at 0.1235 µM: HT-29, read-out: HT-29 Cell viability (%), 0.1235 µM; for viability at 0.3704 µM: HT-29, read-out: HT-29 Cell viability (%), 0.3704 µM; for viability at 1.1111 µM: HT-29, read-out: HT-29 Cell viability (%), 1.1111 µM; for viability at 3.3333 µM: HT-29, read-out: HT-29 Cell viability (%), 3.3333 µM; for viability at 10 µM: HT-29, read-out: HT-29 Cell viability (%), 10.0000 µM
Protocol: (§1) To generate KAP^2D cells, KAP organoids were isolated from Matrigel, fragmented by mechanical dissociation and plated without any extracellular matrix on common cell culture dishes. Phoenix-Eco packaging cells (CRL-3214), HCT-15 (CCL-225), HCT 116 (CCL-247), COLO 205 (CCL-222), LS 174T (CL-188), RKO (CRL-2577) and HT-29 (HTB-38) were obtained from the American Type Culture Collection. The cells were cultured at 37 °C and 7% CO2 with RPMI (KAP^2D cells) or DMEM (other cell lines), supplemented with 10% FBS and penicillin–streptomycin. KAP^2D cells were authenticated using PCR (Kras locus and Trp53 locus). Phoenix-Eco packaging cells and HCT-15, HCT 116, COLO 205, LS 174T, RKO and HT-29 cells were authenticated by the provider using short tandem repeat profiling. No commonly misidentified cell lines were used. Mycoplasma contamination was excluded by a PCR-based analysis.
(§2) For in vitro treatment studies, organoids were mechanically dissociated and digested using TrypLE supplemented with 100 µg ml^−1 DNaseI and 10.5 µM Y-27632 dihydrochloride (Invitrogen) at 37 °C. A total of 1,000–2,000 single cells were plated per well in white 96-well plates (Greiner) in culture medium containing 10% GFR Matrigel or Cultrex BME. The treatment with doxycycline (5 µg ml^−1), pharmacological inhibitors or corresponding volumes of DMSO was started 24 h after plating. Doxycycline was obtained from Sigma-Aldrich. […] Cell viability was measured by means of CellTiter-Glo 3D or CellTiter-Glo 2.0 reagent (Promega) according to the manufacturers’ instructions and the Infinite M Plex reader (Tecan, i-control version 3.9.1 software). Results were normalized to vehicle (DMSO) or to shNC. For cell-doubling assays, the cell number was quantified at the corresponding time points using Guava EasyCyte flow cytometer (Luminex, CytoSoft v5.2 software).

[2] = tested on: PDO9; assay: cell viability in patient-derived CRC organoids PDO9; type: cell-based, human
Protocol: as §2

[3] = tested on: COLO 205; assay: cell viability in human CRC cell line COLO 205; type: cell-based; settings: for COLO 205 Cell viability (%): 4 d
Protocol: as §1, §2

[4] = tested on: HCT-15; assay: cell viability in human CRC cell line HCT-15; type: cell-based; settings: 4 d
Protocol: as §1, §2

## O=C1c2ccc(Nc3ccc(F)cc3F)cc2CCc2ccc(OC[C@H](O)CO)cc21 [SKL, skepinone-L, reference compound]
[1]; 0.0137 µM, Repetition
  HT-29 Cell viability (%): 103.68% and 103.86%
[1]; 0.0137 µM, first experiment
  HT-29 Cell viability (%): 94.50% and 93.43%
[1]; 0.0412 µM, Repetition
  HT-29 Cell viability (%): 99.67% and 99.85%
[1]; 0.0412 µM, first experiment
  HT-29 Cell viability (%): 92.23% and 89.57%
[1]; 0.1235 µM, Repetition
  HT-29 Cell viability (%): 103.93% and 105.17%
[1]; 0.1235 µM, first experiment
  HT-29 Cell viability (%): 89.62% and 88.59%
[1]; 0.3704 µM, Repetition
  HT-29 Cell viability (%): 102.88% and 105.26%
[1]; 0.3704 µM, first experiment
  HT-29 Cell viability (%): 92.54% and 90.50%
[1]; 1.1111 µM, Repetition
  HT-29 Cell viability (%): 104.46% and 106.93%
[1]; 1.1111 µM, first experiment
  HT-29 Cell viability (%): 97.34% and 97.79%
[1]; 3.3333 µM, Repetition
  HT-29 Cell viability (%): 100.17% and 95.98%
[1]; 3.3333 µM, first experiment
  HT-29 Cell viability (%): 98.14% and 94.12%
[1]; 10.0000 µM, Repetition
  HT-29 Cell viability (%): 26.97% and 25.38%
[1]; 10.0000 µM, first experiment
  HT-29 Cell viability (%): 26.95% and 26.30%
[1]; Repetition
  viability at 0.0137 µM: 95.8%
  viability at 0.0412 µM: 92.3%
  viability at 0.1235 µM: 91.3%
  viability at 0.3704 µM: 97.9%
  viability at 1.1111 µM: 99.2%
  viability at 3.3333 µM: 93.3%
  viability at 10 µM: 28.2%
[1]; first experiment
  viability at 0.0137 µM: 95.5%
  viability at 0.0412 µM: 93.7%
  viability at 0.1235 µM: 91.8%
  viability at 0.3704 µM: 92.5%
  viability at 1.1111 µM: 99.6%
  viability at 3.3333 µM: 95.6%
  viability at 10 µM: 25.2%
[2]; Homo sapiens, 96 h, read-out: Cell viability (%), PDO9, 0.5 µM, 4 d
  viability at 0.5 µM: 92%
[2]; PDO9, 0.5 µM, 4 d, 0.5 µM
  Cell viability (%): 97.83% and 101.86%
[2]; PDO9, 1 µM, 4 days, 1 µM
  Cell viability (%): 97.80% and 79.73% and 102.56%
[3]; 0.0137 µM
  COLO 205 Cell viability (%): 96.45% and 96.38% and 97.30% and 129.19% and 99.27% and 94.84%
[3]; 0.0412 µM
  COLO 205 Cell viability (%): 127.57% and 100.82% and 92.20% and 93.68% and 91.56% and 87.30%
[3]; 0.1235 µM
  COLO 205 Cell viability (%): 118.98% and 94.94% and 87.73% and 92.65% and 90.17% and 91.06%
[3]; 0.3704 µM
  COLO 205 Cell viability (%): 128.00% and 91.92% and 96.35% and 88.32% and 91.46% and 92.15%
[3]; 1.1111 µM
  COLO 205 Cell viability (%): 104.82% and 92.26% and 92.51% and 87.03% and 84.46% and 82.14%
[3]; 3.3333 µM
  COLO 205 Cell viability (%): 118.94% and 101.69% and 108.96% and 89.84% and 86.56% and 82.40%
[3]; 10.0000 µM
  COLO 205 Cell viability (%): 88.40% and 89.99% and 81.09% and 75.75% and 75.52%
[3]; Homo sapiens, COLO 205, 96 h, read-out: COLO 205 Cell viability (%), 10.0000 µM, 4 d
  viability at 10 µM: 86.3%
[4]; 0.0137 µM
  HCT-15 Cell viability (%): 94.63% and 95.15% and 88.92% and 87.12% and 85.20%
[4]; 0.0412 µM
  HCT-15 Cell viability (%): 84.33% and 79.97% and 95.82% and 93.07% and 94.19%
[4]; 0.1235 µM
  HCT-15 Cell viability (%): 87.23% and 83.60% and 94.86% and 91.54% and 91.68%
